Measured values from US20240368534A1 (priority 2021, published 2024).
Where two headings read alike, the source gives them in different places.

Experiments:
[1] = tested on: OPH-E. coli/S. oneidensis mixtures; type: cell-based
[2] = tested on: OPH-E. coli/S. oneidensis mixtures; type: cell-based; settings: for anodic current: 20 μM; for charge produced / charge relative to cell only baseline: at 24 hours
[3] = tested on: transcription factor DmpR; type: cell-based, Pseudomonas spp. CF600
[4] = molecular target: T1, organophosphate hydrolase (OPH) displayed on E. coli (Brevundimonas diminuta, UniProt P0A434); type: biochemical, Pseudomonas diminuta
T1 construct: expressed in transfected cells; host or cells: E. coli BL21 (DE3) carrying pSKB3-INPNC-OPH, IPTG-induced, lyophilized whole cells

engineered S. oneidensis = type: cell-based
[5] = tested on: transcription factor DmpR; type: cell-based, Pseudomonas spp. CF600; remark: listed apart in the source

With `CCOP(=S)(OCC)Oc1ccc([N+](=O)[O-])cc1` [parathion] the “increase in GFP fluorescence” value [1] was 58 fold, the total charge accumulated [2] was 1.04±0.66 mA*h and the “anodic current” value [2] was “increase in anodic current”.

With `Oc1ccc(O)cc1` [hydroquinone] the “GFP fluorescence response” value [3] was “very low fluorescence”.

With `Cc1ccc(O)c(O)c1` [4-methylcatechol] the “GFP fluorescence response” value [3] was “very low fluorescence”.

With `CCOC(=O)CC(SP(=O)(OC)OC)C(=O)OCC` (stereo not shown) [malaoxon] the “GFP expression” value [1] was “GFP expression was not observed”, the total charge accumulated [2] was 0.068±0.006 mA*h and the “anodic current” value [2] was “no significant current”.

For `CCOP(=O)(OCC)Oc1ccc([N+](=O)[O-])cc1` [paraoxon], the “GFP fluorescence response” value [3] was “No such increase in the fluorescence”, the Km ([4]; read-out: Michaelis constant (KM)) was 198 ± 81.7 µM and the “anodic current” value (engineered S. oneidensis) was “did not yield a considerable current”. The total charge (engineered S. oneidensis) was 0.21±0.02 mA*h, the charge accumulation [2] was 0.140±0.02 mA*h and the “limit of detection of the sensor” value [2] was 0.15 µM. The total charge accumulated [2] was 1.64±0.18 mA*h, the charge produced ([2]; 1 μM) was 0.101±0.017 mA*h and the “charge relative to cell only baseline” value ([2]; 1 μM) was 1.7 times. The charge produced ([2]; 5 μM) was 0.180±0.018 mA*h, the “charge relative to cell only baseline” value ([2]; 5 μM) was “approximately three times higher” and the “anodic current” value [2] was “increase in anodic current”.

With `O=[N+]([O-])c1ccc(O)cc1` [p-NP, p-nitrophenol] the “GFP expression response” value [5] was “logarithmic increase in GFP expression”, the “increase in GFP fluorescence” value [3] was 54 fold and the “lowest concentration at which fluorescence observed” value [3] was 6.25 µM. For the same compound, the “anodic current” value (engineered S. oneidensis) was “continuous increase in anodic current” and the total charge (engineered S. oneidensis) was 1.32±0.48 mA*h.

For `NCCc1ccc(O)c(O)c1` [dopamine], the “GFP fluorescence response” value [3] was “very low fluorescence”.

In the case of `COP(=O)(OC)Oc1ccc([N+](=O)[O-])cc1` [paraoxon-methyl], the degradation rate [4] is reported as “significantly enhanced degradation rates”, the “rate of p-NP production” value [4] is reported as “very slow rates of p-NP production” and the “increase in GFP fluorescence” value [1] is reported as 48 fold. The total charge accumulated [2] was 1.03±0.31 mA*h and the “anodic current” value [2] was “increase in anodic current”.
